{"source": "patent US10865435B2", "about": "“Method of screening antibacterial compounds as inhibitor of Mfd” (INSTITUT NATIONAL DE LA RECHERCHE AGRONOMIQUE, priority 2016, dated 2020)", "test_system": "Bacillus cereus strain Bc 407", "assay": "Molecule capacity to inhibit bacterial growth in the presence of artificially produced nitric oxide (cfu plating)", "format": "cell-based", "method": "Bacteria (Bacillus cereus strain Bc 407) were grown in LB medium until mid exponential growth phase at 37° C. with shaking. Cultures were then diluted to 10^4 cfu/ml in PBS (Phosphate Buffered Saline, Sigma). The molecules to be tested (potential Mfd inhibitors) are added at a concentration of 0 to 1 mM to the bacteria and the bacteria+inhibitors are incubated at room temperature for 1 h without agitation.\nBacteria were then exposed directly to chemically generated NO+ in a cell-free system as described by Miyagi et al. (Miyagi et al., 1997) with modifications. Briefly, 10^4 bacterial cfu (+various concentrations of potential Mfd inhibitors) are incubated in RPMI-1640 medium (Invitrogen) at acidic pH (pH 5.4) either in the absence or in the presence of 1.5 mM sodium nitrite (Walco Pure Chemical Industries Ltd) at 37° C. for 1 h under shaking; under these acidic conditions, NO+ is generated from the sodium nitrite by a chemical reaction (Miyagi et al., 1997).\nThe bacteria are harvested and plated on agar plates to evaluate bacterial survival. The cfu obtained without nitric oxide stress gives the toxicity value whereas the cfu obtained following nitric oxide stress gives the inhibitor efficacy value. Using this cell free assay, the inhibitor concentration required to decrease by 50% the survival rate of the bacteria (IC50) in the presence of nitric oxide stress compared to untreated bacteria is calculated using the GraphPad PRISM software (version 6.0, GraphPad Software, San Diego, Calif.) with non-linear regression.", "data": [{"smiles": "CN1CC(=O)N2[C@H](c3ccc4c(c3)OCO4)c3[nH]c4ccccc4c3C[C@@H]2C1=O", "note": "[tadalafil, (6R-trans)-6-(1,3-benzodioxol-5-yl)-2,3,6,7,12,12a-hexahydro-2-methyl-pyrazino[1′,2′:1,6]pyrido[3,4-b]indole-1,4-dione]", "values": [{"measurement": "IC50", "setting": "1.5 mM sodium nitrite, pH 5.4, 37° C., 1 h, mean of two experiments, read-out: IC50 (concentration required to decrease by 50% the survival rate of the bacteria in the presence of nitric oxide stress compared to untreated bacteria)", "result": 98.7, "unit": "µM"}, {"measurement": "activity on B. cereus survival with nitric oxide (NO) stress", "setting": "with NO stress, at 100 μM", "result": "activity"}, {"measurement": "activity on B. cereus survival without stress (toxicity)", "setting": "without nitric oxide stress, until 100 μM", "result": "weak activity"}]}]}
